# Data taken from patent US20150148311A1, “NON-SYSTEMIC TGR5 AGONISTS” (Ardelyx, Inc., priority 2011, published 2015).
# Experiments:
# [1] = target: T1, endogenously expressed TGR5 in NCI H716 (Homo sapiens, UniProt Q8TDU6); assay: Cell-based TGR5 assay, NCI-H716 cells endogenously expressing human TGR5, cAMP by HTRF; conditions: 30 min at 37 C, 22 nM to 50 μM, read-out: pEC50 endogenously expressed TGR5 in NCI H716 (converted)
# T1 construct: human caecum carcinoma cell line NCI-H716 which endogenously expresses human TGR5; endogenous in cells; host or cells: NCI-H716
# T1 sequence (Q8TDU6 1-330): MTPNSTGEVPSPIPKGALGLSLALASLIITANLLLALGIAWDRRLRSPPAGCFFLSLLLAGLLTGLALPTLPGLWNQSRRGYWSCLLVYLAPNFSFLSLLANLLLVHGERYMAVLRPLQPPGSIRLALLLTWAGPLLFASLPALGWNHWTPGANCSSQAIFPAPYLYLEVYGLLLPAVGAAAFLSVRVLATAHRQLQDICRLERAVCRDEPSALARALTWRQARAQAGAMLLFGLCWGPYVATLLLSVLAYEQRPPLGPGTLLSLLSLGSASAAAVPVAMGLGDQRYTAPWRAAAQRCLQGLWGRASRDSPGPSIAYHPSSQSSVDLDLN
# How it was run: (§1)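 cAMP HTRF read-out, converted to concentration via standard curve, after a 30 min, 37 °C compound exposure in HBSS with 10 mM HEPES pH 7.4 and 0.5 mM IBMX, compounds serially diluted 3-fold from 10 mM DMSO stock then 100-fold. Cells: stable human TGR5 HEK293, or NCI-H716 expressing TGR5 endogenously.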
# human FXR = target: T2, human FXR (Homo sapiens, UniProt Q96RI1); assay: FXR counter screen, cell-based luciferase reporter assay; conditions: cells expressing human FXR and FXR-responsive luciferase reporter, 0.4 to 50 μM test compound; read-out: pEC50 human FXR (converted)
# T2 construct: purchased Indigo Biosciences (State College, Pa.)
# T2 sequence (Q96RI1 1-486): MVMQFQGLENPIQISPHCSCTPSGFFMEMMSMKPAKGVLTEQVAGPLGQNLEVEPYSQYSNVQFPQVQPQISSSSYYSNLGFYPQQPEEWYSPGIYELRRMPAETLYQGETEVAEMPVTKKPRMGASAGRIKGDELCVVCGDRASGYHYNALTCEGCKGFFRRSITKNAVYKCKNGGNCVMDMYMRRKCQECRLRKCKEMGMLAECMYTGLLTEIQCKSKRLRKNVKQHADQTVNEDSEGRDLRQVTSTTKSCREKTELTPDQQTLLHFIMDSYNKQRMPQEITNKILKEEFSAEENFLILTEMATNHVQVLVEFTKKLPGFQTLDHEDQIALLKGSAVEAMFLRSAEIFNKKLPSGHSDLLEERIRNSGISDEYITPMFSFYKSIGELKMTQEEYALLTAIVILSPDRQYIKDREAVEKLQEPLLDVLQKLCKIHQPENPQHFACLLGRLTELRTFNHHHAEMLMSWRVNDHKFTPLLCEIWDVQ
# Description: FXR: The ability of test compounds to activate FXR (NR1H4) was measured using a cell-based assay kit obtained from Indigo Biosciences (State College, Pa.).
# human IBAT = target: T3, human IBAT (Homo sapiens, UniProt Q12908); assay: IBAT counter screen, [3H]taurocholic acid uptake in IBAT-transfected HEK293 cells; format: cell-based; conditions: read-out: pEC50 human IBAT (converted)
# T3 construct: expressed in transfected cells; host or cells: HEK293
# T3 sequence (Q12908 1-348): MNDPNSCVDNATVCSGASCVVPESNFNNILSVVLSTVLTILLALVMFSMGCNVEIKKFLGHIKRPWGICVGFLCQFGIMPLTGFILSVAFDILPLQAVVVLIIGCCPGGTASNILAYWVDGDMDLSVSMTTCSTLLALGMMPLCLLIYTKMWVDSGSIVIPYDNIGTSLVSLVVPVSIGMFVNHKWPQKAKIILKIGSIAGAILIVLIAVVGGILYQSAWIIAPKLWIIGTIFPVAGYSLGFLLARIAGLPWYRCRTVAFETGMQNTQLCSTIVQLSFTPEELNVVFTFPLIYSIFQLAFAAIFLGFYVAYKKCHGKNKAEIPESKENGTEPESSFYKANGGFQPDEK
# Description: Following a 40-min incubation, the solution was removed, and the cells were washed twice with uptake buffer. Cells were lysed by addition of 20 μL 0.1% Tween 80 followed by 100 μL scintillation fluid and counted using a TopCount (Perkin Elmer).
# human TGR5 = target: T4, human TGR5 (Homo sapiens, UniProt Q8TDU6); assay: Cell-based TGR5 assay, HEK293 cells stably expressing human TGR5, cAMP by HTRF; conditions: HEK293 cells stably expressing human TGR5, 30 min at 37 C, 0.05 nM to 10 μM, read-out: pEC50 Human TGR5 (converted)
# T4 construct: expressed in transfected cells
# T4 sequence (Q8TDU6 1-330): T1 sequence (Q8TDU6 1-330)
# How it was run: as §1
# C57BL/6 male mice = assay: In vivo gallbladder measurement (weight) 8 h post dose; conditions: 30 mg/kg; for Gallbladder weight/body weight fold change over vehicle, Significance: 8 h, vs. vehicle, one-way ANOVA, Dunnett's test; for Gallbladder weight/body weight fold change over vehicle, Mean: food removed, eight hours after dosing
# Description: (§2) Eight hours later, each mouse was heavily anesthetized with isoflurane, the peritoneal cavity was opened and the gallbladder, with its entire contents, was carefully excised and weighed. Blood was collected from the left ventricle of the heart and processed to plasma in EDTA-coated tubes containing aprotinin and DPPIV inhibitor for measurement of total GLP-1 (K150FCC; Meso Scales Discovery, Gaithersburg Md.).
# [2] = Compound concentration in gall bladder, LC-MS/MS, 8 h post dose; format: in vivo; conditions: 30 mg/kg; for Number of Mice with Gallbladder Concentration < LLOQ: mice below LLOQ / mice in group; for concentration at 8 h: male, C57BL/6, mouse, with contents, mice, gallbladder homogenate, read-out: Mean Example Gallbladder Concentration
# How it was run: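 Gallbladder with its contents excised from isoflurane-anesthetized mice 8 h after dosing and homogenized in water. Homogenate diluted 1:5, precipitated with acetonitrile and measured by LC-MS/MS. Levels interpolated from per-compound standard curves in vehicle-treated gallbladder homogenate.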
# total GLP-1 = assay: In vivo GLP-1 secretion, plasma total GLP-1 8 h post dose; conditions: Mus musculus, C57BL/6 male mice, food removed, plasma total GLP-1 eight hours after dosing, read-out: GLP-1 fold change over vehicle, Mean
# Description: as §2
# [3] = Compound plasma concentration, LC-MS/MS, 8 h post dose; format: in vivo; conditions: 30 mg/kg; for Number of Mice with Plasma Concentration < LLOQ: mice below LLOQ / mice in group; for concentration at 8 h: male, C57BL/6, mouse, mice, plasma, read-out: Mean Example Plasma Concentration
# How it was run: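 Blood was taken from the left ventricle 8 h after dosing, under isoflurane anesthesia, into EDTA tubes containing aprotinin and DPPIV inhibitor. Plasma was protein-precipitated with acetonitrile containing an internal standard, and supernatants were analyzed by LC-MS/MS against a plasma standard curve.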
SMILES,EC50 [1],EC50 (human FXR),EC50 (human IBAT),EC50 (human TGR5),Number of Mice with Gallbladder Concentration < LLOQ [2],concentration at 8 h [2],Number of Mice with Plasma Concentration < LLOQ [3],concentration at 8 h [3],"Gallbladder weight/body weight fold change over vehicle, Significance (C57BL/6 male mice)","Gallbladder weight/body weight fold change over vehicle, Mean (C57BL/6 male mice)",response vs control in vivo at 30 mg/kg (total GLP-1)
"O=C(N1CCN(C2CC2)c2ccccc21)C1(OCc2cc(Cl)ccc2Cl)CC1 [Example 9, (4-cyclopropyl-3,4-dihydroquinoxalin-1(2H)-yl)(1-(2,5-dichlorobenzyloxyl)cyclopropyl)methanone]",126 to 1000 nM,> 50100 nM,> 25100 nM,< 100 nM,,,,,,,
"O=C(N1CCN(C2CC2)c2ccccc21)C1(NCc2cc(Cl)ccc2Cl)CC1 [Example 26, (4-cyclopropyl-3,4-dihydroquinoxalin-1(2H)-yl)(1-((2,5-dichlorobenzyl)amino)cyclopropyl)methanone]",< 100 nM,> 50100 nM,> 25100 nM,< 100 nM,0/8,30 nM,0/8,9.1 ng/mL,* (* p < 0.05 vs. vehicle; One-way ANOVA followed by Dunnett's test),1.6 fold change over vehicle,160%
"O=C(N1CCN(C2CC2)c2ccccc21)C1(COc2cc(Cl)ccc2Cl)CC1 [Example 32, 1-cyclopropyl-4-[[1-(2,5-dichlorophenoxymethyl)cyclopropyl]carbonyl]-1,2,3,4-tetrahydroquinoxaline]",126 to 1000 nM,> 50100 nM,,< 100 nM,,,,,,,
"CN(C[C@H](O)[C@@H](O)[C@H](O)[C@H](O)CO)C(=O)CCc1cc(Cl)c(OCC2(C(=O)N3CCN(C4CC4)c4ccccc43)CC2)cc1Cl [Example 34, 3-[2,5-dichloro-4-([1-[(4-cyclopropyl-1,2,3,4-tetrahydroquinoxalin-1-yl)carbonyl]cyclopropyl]methoxy)phenyl]-N-methyl-N-[(2S,3R,4R,5R)-2,3,4,5,6-pentahydroxyhexyl]propanamide]",1260 to 50100 nM,> 50100 nM,,126 to 1000 nM,,,,,,,
"O=C(CCc1cc(Cl)c(OCC2(C(=O)N3CCN(C4CC4)c4ccccc43)CC2)cc1Cl)NC[C@H](O)[C@@H](O)[C@H](O)[C@H](O)CO [Example 75, 3-[2,5-dichloro-4-([1-[(4-cyclopropyl-1,2,3,4-tetrahydroquinoxalin-1-yl)carbonyl]cyclopropyl]methoxy)phenyl]-N-[(2S,3R,4R,5R)-2,3,4,5,6-pentahydroxyhexyl]propanamide]",126 to 1000 nM,> 50100 nM,,126 to 1000 nM,,,,,,,

# Continued, in another order:
EC50 [1],EC50 (human FXR),EC50 (human IBAT),EC50 (human TGR5),Number of Mice with Gallbladder Concentration < LLOQ [2],concentration at 8 h [2],Number of Mice with Plasma Concentration < LLOQ [3],concentration at 8 h [3],SMILES,"Gallbladder weight/body weight fold change over vehicle, Significance (C57BL/6 male mice)","Gallbladder weight/body weight fold change over vehicle, Mean (C57BL/6 male mice)",response vs control in vivo at 30 mg/kg (total GLP-1)
126 to 1000 nM,> 50100 nM,,< 100 nM,,,,,"CN(C[C@H](O)[C@@H](O)[C@H](O)[C@H](O)CO)C(=O)CCc1cc(Cl)c(COC2(C(=O)N3CCN(C4CC4)c4ccccc43)CC2)cc1Cl [Example 80, 3-[2,5-dichloro-4-([1-[(4-cyclopropyl-1,2,3,4-tetrahydro-quinoxalin-1-yl)carbonyl]cyclopropoxy]methyl)phenyl]-N-methyl-N-[(2S,3R,4R,5R)-2,3,4,5,6-pentahydroxyhexyl]propanamide]",,,
< 100 nM,> 50100 nM,,< 100 nM,,,,,"O=C(CCc1cc(Cl)c(COC2(C(=O)N3CCN(C4CC4)c4ccccc43)CC2)cc1Cl)NC[C@H](O)[C@@H](O)[C@H](O)[C@H](O)CO [Example 88, 3-[2,5-dichloro-4-([1-[(4-cyclopropyl-1,2,3,4-tetrahydroquinoxalin-1-yl)carbonyl]cyclopropoxy]methyl)phenyl]-N-[(2S,3R,4R,5R)-2,3,4,5,6-pentahydroxyhexyl]propanamide]",,,
126 to 1000 nM,,,< 100 nM,0/8,100 nM,8/8,< 0.5 ng/mL,CN(C[C@H](O)[C@@H](O)[C@H](O)[C@H](O)CO)C(=O)NCCCCOc1cc(Cl)c(CN2CSC[C@H]2C(=O)N2CCN(C3CC3)c3ccccc32)cc1Cl [Example 191],n.s.,1.0 fold change over vehicle,150%
,,> 25100 nM,< 100 nM,0/8,900 nM,5/8,5.2 ng/mL,O=C(CCCCc1cc(Cl)c(COC2(C(=O)N3CCN(C4CC4)c4ccccc43)CC2)cc1Cl)NC[C@H](O)[C@@H](O)[C@H](O)[C@H](O)CO [Example 193],n.s.,1.1 fold change over vehicle,90%
< 100 nM,,> 25100 nM,< 100 nM,0/8,100 nM,2/8,0.7 ng/mL,O=C(CCCCc1cc(Cl)c(CNC2(C(=O)N3CCN(C4CC4)c4ccccc43)CC2)cc1Cl)NC[C@H](O)[C@@H](O)[C@H](O)[C@H](O)CO [Example 218],n.s.,1.0 fold change over vehicle,140%
